Assays:
[1] = tested on: rat; conditions: Prenatal developmental toxicity study, sprague dawley, Oral, Gavage/Intubation, dose end: 15 GD
[2] = tested on: rat; conditions: Multigenerational reproductive toxicity study, sprague dawley, Oral, Feed, dose end: 2 generation
[3] = tested on: rabbit; conditions: Prenatal developmental toxicity study, himalayan, Inhalation, Whole-Body, dose end: 29 GD
[4] = tested on: rat; conditions: Prenatal developmental toxicity study, wistar, Inhalation, Whole-Body, dose end: 15 GD
[5] = group: developmental, developmental / developmental malformation / bone / delayed ossification
[6] = group: developmental, developmental / developmental malformation / bone / delayed ossification + developmental / developmental malformation / ureter / distended
[7] = group: maternal, systemic / in life observation / body weight / body weight gain + systemic / in life observation / food consumption / food consumption
[8] = group: maternal, systemic / in life observation / body weight / body weight gain + systemic / in life observation / food consumption / food consumption + …
[9] = group: offspring, systemic / in life observation / body weight / offspring (pup) weight
[10] = group: parental, systemic / pathology microscopic / stomach / proliferation
[11] = group: developmental, developmental / developmental malformation / heart / [other] + developmental / developmental malformation / limb / [other]
[12] = group: maternal, systemic / in life observation / mortality / mortality
[13] = group: developmental, developmental / developmental malformation / bone / incomplete ossification + developmental / developmental malformation / bone / …
[14] = group: developmental, developmental / developmental malformation / bone / malpositioned

`COC[C@H](C)N(C(=O)CCl)c1c(C)csc1C` [Dimethenamid-P] showed an LEL [1, 5] of 150 mg/kg/day, an LOAEL [1, 5] of 150 mg/kg/day and an NEL [1, 6] of 25 mg/kg/day. For the same compound, the NOAEL [1, 6] was 25 mg/kg/day, the LOAEL [1, 7] was 25 mg/kg/day and the NOAEL [1, 7] was less than 25 mg/kg/day. The LEL [1, 8] was 25 mg/kg/day and the NEL [1, 8] was less than 25 mg/kg/day.
`O=C([O-])C1C2CCC(O2)C1C(=O)[O-].[Na+].[Na+]` (configuration not stated) [Disodium endothal] was tested, and the LEL [2, 9] was 10.9 mg/kg/day, the LOAEL [2, 9] was 77.1 mg/kg/day and the NEL [2, 9] was 2.1 mg/kg/day. For the same compound, the NOAEL [2, 9] was 10.9 mg/kg/day, the LEL [2, 10] was 2.1 mg/kg/day and the LOAEL [2, 10] was 2.1 mg/kg/day. The NEL [2, 10] was less than 2.1 mg/kg/day and the NOAEL [2, 10] was less than 2.1 mg/kg/day.
`CC(C)CCO` [Isopentyl alcohol] gave an LEL [3, 11] of 0.5 ppm, an LOAEL [3, 11] greater than 10 ppm and an NEL [3, 11] of less than 0.5 ppm. The NOAEL [3, 11] was no less than 10 ppm, the LEL [3, 12] was 2.5 ppm and the LOAEL [3, 12] was 2.5 ppm. For the same compound, the NEL [3, 12] was 0.5 ppm, the NOAEL [3, 12] was 0.5 ppm and the LOAEL [4, 13] was greater than 10 ppm. The NOAEL [4, 13] was no less than 10 ppm, the LEL [4, 14] was 0.5 ppm and the NEL [4, 14] was less than 0.5 ppm. It also gave an LEL [4, 12] of 0.5 ppm, an LOAEL [4, 12] greater than 10 ppm and an NEL [4, 12] of less than 0.5 ppm. For the same compound, the NOAEL [4, 12] was no less than 10 ppm.
